Row | SMILES | melting point [°C]
1 | CC(c1ccccc1N1CCCCC1)C(C(N)=O)c1ccc(C(=O)N2CCCCC2)cc1 (centres undefined) | 131 to 133
2 | O=C1CCc2ccc(OCCCCOc3ccc4c(c3)NC(=O)CC4)cc2N1 | 218
3 | CC1CN(c2cc3c(cc2F)C(=O)c2nc4ccccc4c(=O)n2-3)CCN1C(=O)OC(C)(C)C (centres undefined) | 234 to 237
4 | Cc1ccc2nc(-c3ccc(N)c(Br)c3)sc2c1 | 188 to 190
5 | Cc1cccc(-c2c(C)n(C)c(=O)n(C)c2=O)c1 | 137 to 139
6 | FC(F)(F)c1cccc(-c2cc(C(F)(F)F)n3ncc(I)c3n2)c1 | 142
7 | CCCCc1nc(=O)c2cc(-c3nnn[nH]3)ccc2[nH]1 | 225
8 | CC(=O)Sc1ccc(C#Cc2ccc(C=O)cc2)cc1 | 128 to 129
9 | O=C(Nc1cccnc1)N1CCc2cc(-c3ccccc3)ccc21 | 241 to 242
10 | CCOC(=O)C1(c2ccccc2)CCN(C2CCC(C#N)(c3ccccn3)CC2)CC1 (centres undefined) | 157
11 | CC(C)CNC(=O)C=CCBr | 94 to 95
12 | CCCC(=O)Nc1cc(S(=O)c2ccccc2)ccc1N(C(=N)NC(=O)OC)C(=O)OC (centres undefined) | 134
13 | O=C(Cc1ccccc1)NC1CN(OC(=O)c2ccccc2)C1=O (centres undefined) | 128 to 130
14 | CC(=O)N(CC(=O)O)c1ccccc1C(=O)O | 206
15 | CC(C)(CO)c1ccc(C=O)c(O)c1 | 80.4 to 81.9
16 | OCc1nc2cc(Cl)cnc2[nH]1 | 209 to 211
17 | CCOC(=O)C=C1CC(c2cccc(C3(c4ccc(OC(F)F)cc4)N=C(N)N(C)C3=O)c2)C1 (centres undefined) | 78 to 80
18 | CCc1cn(C)c2cc(-c3ccccc3Cl)c3c(c12)C(=O)NC3=O | 230 to 233
19 | COC(=O)c1cccnc1Cn1cccc1C=O | 91 to 93
20 | O=C(O)CCCC/C=C/c1ccccc1CO | 92 to 94.5
21 | Cc1c(N2CCC3(CC3N)C2)c(F)cc2c(=O)c(C(=O)O)cn([C@@H]3C[C@@H]3F)c12 (some centres undefined) | 103 to 109
22 | COc1ccc(-c2cc(S(N)(=O)=O)sc2-c2ccc(OC)c(S(N)(=O)=O)c2)cc1S(N)(=O)=O | 242 to 244
23 | CCCc1nn(CC)c2c(=S)[nH]c(-c3ccccc3OCC)nc12 | 130 to 131
24 | Cc1cccc(C)c1N(CCCc1cccnc1)C(=O)Cn1ccnc1C | 89 to 90
25 | Cc1cc(Cl)cc(C(=O)Nc2ccc(Cl)cn2)n1 | 151

Row | SMILES | melting point [°C]
26 | COC(=O)c1ccc(Cl)c(C2(O)C(=O)N(Cc3ccc(OC)cc3OC)c3ccccc32)c1 (centres undefined) | 172
27 | O=C(O)Cn1cc(Cc2nc3c(F)c(F)cc(F)c3s2)c2c(Cl)cccc21 | 203 to 206
28 | COc1ccc(Nc2nc(-c3ccccc3)c(C(=O)c3sc(Nc4ccc(OC)cc4)nc3-c3ccccc3)s2)cc1 | > 285
29 | CC#CCOc1ccc(S(=O)(=O)C(CCCCCC#N)C(=O)OCC)cc1 (centres undefined) | 63
30 | CCOc1ccc(C=CC(=O)c2c(O)cc(OCC)cc2OCC)cc1 | 131
31 | CC(C)(C)OC(=O)NC(Cc1ccccc1)C(O)CNCC(O)C(Cc1ccccc1)NC(=O)C(O)(CO)C(C)(C)C (centres undefined) | 84 to 86
32 | CCC(CC)(c1ccc(F)cc1F)c1c[nH]c2c(NS(C)(=O)=O)cccc12 | 144 to 147
33 | COc1cccc([C@@]23CCN(C)C[C@@H]2Cc2cc4ccccc4nc2C3)c1 | 154 to 156
34 | CO[C@@H]1c2ccn3c(C)c(C)nc3c2N[C@H](c2ccccc2)[C@H]1OC(=O)c1ccccc1 | 92 to 93
35 | CCc1nn(-c2cc(NC(=O)c3ccccc3)ccc2Br)c(=O)n1Cc1ccc(-c2ccccc2S(=O)(=O)NC(=O)OC(C)(C)C)cc1F | 154 to 156
36 | COC(=O)[C@H](Cc1ccc([N+](=O)[O-])cc1)NC(=S)C1(CCCCS(C)(=O)=O)CCC1 | 150 to 152
37 | CCCCOc1cc(OCCCC)c(C(=O)O)c(C(F)(F)F)n1 | 90 to 93.5
38 | COC(=O)C=Cc1ccc(-c2ccc(O)cc2)cc1 | 233 to 235
39 | CCOC(=O)c1cc(NC(C)=O)cnc1C(=O)OCC | 108 to 110
40 | CCCCNc1nc(N2CC3CCC(CC3)C2)nc(N2CC3CCC(CC3)C2)n1 | 101 to 103
41 | C#CCc1[nH]c(C)c2c1CN=C(c1ccccc1F)c1cc(Cl)ccc1-2 | 179 to 180
42 | O=C(CNC(=O)C1CCCCC1)c1ccco1 | 110 to 111
43 | CC(C)n1nc(-c2cnc(N)nc2-c2ccc(F)c(F)c2)ccc1=O | 208
44 | CN(C)n1cc(C(=O)NCc2ccc(Cl)cc2)c(=O)c2ccccc21 | 170 to 172
45 | O=C(Nc1cc(-c2nnc(Cc3ccccc3)o2)ccn1)c1ccccc1 | 187 to 189
46 | COC(=O)c1cc(-c2ccc(F)cc2)oc1C | 96 to 97
47 | Cc1nc(Cl)ccc1C#N | 104 to 105
48 | CC1(CO)CCC2(CC1)OCCO2 | 42 to 43
49 | CC(C)(C)OC(=O)[C@@H]1C[C@H](C(=O)OC(C)(C)C)N1 | 47 to 48.5
50 | CCc1nc2c([nH]1)C(=O)N(C)CN2c1ccc(Cl)cc1Cl | 200 to 201

Row | SMILES | melting point [°C]
51 | Cc1nn(C(=O)NC2CCCCC2)c(=O)n1NC(C)C | 92
52 | CCCc1nc2c(N)nc3cc(OCc4ccc(Cl)c(Cl)c4)ccc3c2n1CC(C)C | 183 to 184
53 | COC(=O)CC(CC(=O)OC)Sc1cc(OC)cc(OC)c1 | 98 to 99
54 | COCc1c(C(=O)OC(C)C)ncc2[nH]c3cccc(Oc4ccc(Cl)cc4)c3c12 | 119 to 120
55 | COc1cc(Nc2nccc(NC(=O)OC(C)(C)C)n2)cc(OC)c1OC | 124
56 | CN(C)c1ccccc1CC(=N)N1C[C@@H]2C(=O)CCC(c3ccccc3)(c3ccccc3)[C@@H]2C1 | 188
57 | CC(=O)N1CCN=C1Nc1cc(C)nn1-c1ccc(Cl)cc1C | 195
58 | CC(=O)N1C(C)(C)CN(CCN2CC(C)(C)N(C(C)=O)C(C)(C)C2=O)C(=O)C1(C)C | 180 to 183
59 | CC(=Cc1ccccc1)c1ccc2c(c1)C(C)(C)CCN2C | 69 to 71
60 | CC(C)Cn1c(=O)n(C)c(=O)c2c(Sc3nc(Br)n[nH]3)c(Cc3ccccc3C(F)(F)F)sc21 | 174 to 175
61 | Nc1sc2c(c1C(=O)c1cccc(CF)c1)CCN(Cc1ccccc1)C2 | 58 to 60
62 | COC(=O)c1c2cc(I)ccc2nc2ccc(I)cc12 | 201 to 203
63 | CC(=O)C1(C)CCCS1(=O)=O (centres undefined) | 47 to 48
64 | CCCCCCCOCCC(=O)Oc1ccc(N=Nc2ccc(OCCCCCC)cc2)cc1 | 69
65 | CCCCCCCCN(C=O)C1CC(C)(C)N(C=CC(=O)OCC)C(C)(C)C1 | 58 to 60
66 | CC(C)c1nn(-c2ccccc2)c(-c2ccc(F)cc2)c1C=O | 110 to 112
67 | CNC(=O)NCc1cccc2c1S(=O)(=O)N=C2C1=C(O)C(C(C)(C)C)N(Cc2ccc(F)cc2)C1=O (centres undefined) | > 250
68 | Nc1ccccc1NC(=O)c1ccc(COc2ccc3ncnc(Nc4cccc(Br)c4)c3c2)cc1 | 215 to 218
69 | OC(COc1cccc2[nH]nnc12)CN1CCC(COc2ccccc2)CC1 (centres undefined) | 187 to 189
70 | Cn1c(COc2ccc(CC(OCc3ccc(F)cc3)C(=O)O)cc2)nc2ccc(Sc3cc(C(C)(C)C)c(O)c(C(C)(C)C)c3)cc21 (centres undefined) | 40 to 46
71 | COc1ccc(C[C@@H](NC(=O)C2CCCCC2)[C@@H](O)c2ccc(F)cc2)cc1 (racemic) | 193 to 194
72 | COC(=O)CC1=CN=C(SC)NC1(C)O (centres undefined) | 200
73 | Cc1noc(NS(=O)(=O)c2ccccc2-c2ccc(-c3ncco3)cc2CN(C)C(=O)Cc2ccccc2)c1C | 114 to 122
74 | CC(CNC1CC(C)(C)NC(C)(C)C1)C(=O)NC1CC(C)(C)NC(C)(C)C1 (centres undefined) | 116
75 | NC1=C(c2ccc(O)cc2)C(=O)c2ccc(O)cc21 | 213

Row | SMILES | melting point [°C]
76 | CC(=O)COc1ccc2cc(S(N)(=O)=O)sc2c1 | 181 to 185
77 | CC(OCc1ccc(-c2ccc(Cl)cc2)cc1)(C(=O)O)C(F)(F)F (centres undefined) | 135 to 136
78 | CCN1C(=O)C(=CC=C2C=C3N(C)c4ccccc4N3CC2)SC1=S | 275
79 | COc1ccc(C=CBr)cc1O | 64 to 66
80 | OC1CSC(Oc2ccc(-c3cccnc3F)nc2)C(O)C1O (centres undefined) | 181
81 | CC1(C)SC2C(NC(c3ccccc3)(c3ccccc3)c3ccccc3)C(=O)N2C1c1nnn[nH]1 (centres undefined) | 133 to 136
82 | CN1C(=O)C2(CCCC2(C)C)c2ccccc21 (centres undefined) | 99 to 101
83 | O=C1c2ccccc2CCC1CNCC(O)c1cccc(O)c1 (centres undefined) | 140 to 143
84 | CC(CSC(C)C(=O)O)C(=O)O (centres undefined) | 78 to 80
85 | O=CNCc1nc2ccccc2o1 | 98 to 99
86 | CS(=O)(=O)c1ccc(C(CC2CCCC2)C(=O)O)cc1C(F)(F)F (centres undefined) | 100 to 102
87 | CCC(Nc1cc(C)nc(Oc2c(C)cc(C)cc2C)c1C(=O)OC)C(C)O (centres undefined) | 116 to 120
88 | O=C1NCCN1Cc1cccc2ccccc12 | 121 to 125
89 | C=CCN1CC(c2ccccc2)=C(O)C1=O | 178 to 183
90 | O=C(O)CCc1cnoc1-c1ccc(Cl)c(F)c1 | 139 to 140
91 | CC(=O)Nc1cnc2ccsc2c1 | 192 to 194
92 | CCOC(=O)CN=C1N[C@](C)(Cc2ccc(Br)cc2)C(=O)N1c1cc(Cl)cc(Cl)c1 | 103 to 105
93 | CC(C)(C)NS(=O)(=O)c1cccc(NC(=O)c2cnn3c(C4CC4)cc(-c4ccc(C(F)(F)F)cc4)nc23)c1 | 258 to 259
94 | Cc1c(O)cccc1C(=O)N[C@@H](Cc1ccccc1)[C@H](O)C(=O)N1CSC(C)(C)[C@H]1C(=O)NCc1ccc(N)cc1 | 107 to 109
95 | COc1cc(Cc2cnc(NC(=O)Cc3ccccc3)nc2N)cc(OC)c1OC | 181 to 183
96 | CCSc1cn(C)cc(-c2cccc(C(F)(F)F)c2)c1=S | 136 to 138
97 | COc1ccc(-c2nc3ccc(OC(F)(F)F)cc3[nH]2)c(OC)c1 | 201 to 203
98 | CN(C(=S)NC(=O)c1ccccc1)c1ccc(-c2ncn(-c3ccc(OC(F)(F)F)cc3)n2)cc1 | 166 to 169
99 | Oc1cccc2c1CCC(N(CCCF)CCc1cccs1)C2 (centres undefined) | 105 to 109
